Key:
[1] = physchem; conditions: pH 7.4
[2] = Intrinsic clearance in human liver microsomes; type: ADME, Microsome; conditions: read-out: CLH

Molecule `CC(C)(C)OC(=O)N1CCN(c2ncc(-c3ccc(OCC#N)cc3)cn2)CC1` has a logD ([1]; octanol/phosphate buffer) of 4.2 and a microsomal CLint [2] of 259 µL/min/mg.

With `CC(C)(C)OC(=O)N1CCN(c2ncc(OCc3ccc(S(C)(=O)=O)cc3)cn2)CC1` the logD ([1]; octanol/phosphate buffer) was 3.2 and the microsomal CLint [2] was 47 µL/min/mg.

`CC(C)(C)OC(=O)N1CCN(c2ccc(OCc3ccc(S(C)(=O)=O)cc3)nn2)CC1` gave a logD ([1]; octanol/phosphate buffer) of 2.8.

In the case of `CC(C)(C)OC(=O)N1CCN(c2cnc(OCc3ccc(S(C)(=O)=O)cc3)cn2)CC1`, the logD ([1]; octanol/water) is reported as 3.4.

For `CC(C)(C)OC(=O)N1CCN(c2ccc(OCc3ccc(S(C)(=O)=O)cc3)cn2)CC1`, the logD ([1]; octanol/phosphate buffer) was 3.2.

With `CC(C)(C)OC(=O)N1CCN(c2ccc(OCc3ccc(S(C)(=O)=O)cc3)cc2)CC1` the logD ([1]; octanol/water) was 3.9.

In the case of `CC(C)(C)OC(=O)N1CCN(c2ncc(OCc3ccc(S(C)(=O)=O)cc3)nn2)CC1`, the logD ([1]; octanol/phosphate buffer) is reported as 2.9.

`CC(C)(C)OC(=O)N1CCC(c2ncc(OCc3ccc(S(C)(=O)=O)cc3)cn2)CC1` gave a logD ([1]; octanol/water) of 2.8.

`C[C@H]1CN(C(=O)OC(C)(C)C)CCN1c1ncc(OCc2ccc(S(C)(=O)=O)cc2)cn1` showed a logD ([1]; octanol/phosphate buffer) of 3.5.

Work on `C[C@@H]1CN(C(=O)OC(C)(C)C)CCN1c1ncc(OCc2ccc(S(C)(=O)=O)cc2)cn1` yielded a logD ([1]; octanol/phosphate buffer) of 3.5.

In the case of `C[C@@H]1CN(c2ncc(OCc3ccc(S(C)(=O)=O)cc3)cn2)CCN1C(=O)OC(C)(C)C`, the logD ([1]; octanol/phosphate buffer) is reported as > 3.7.

For `C[C@H]1CN(c2ncc(OCc3ccc(S(C)(=O)=O)cc3)cn2)CCN1C(=O)OC(C)(C)C`, the logD ([1]; octanol/phosphate buffer) was > 3.6.

With `C[C@@H]1CN(C(=O)OC(C)(C)C)C[C@H](C)N1c1ncc(OCc2ccc(S(C)(=O)=O)cc2)cn1` the logD ([1]; octanol/phosphate buffer) was > 3.6.

In the case of `C[C@@H]1CN(c2ncc(OCc3ccc(S(C)(=O)=O)cc3)cn2)[C@@H](C)CN1C(=O)OC(C)(C)C`, the logD ([1]; octanol/phosphate buffer) is reported as > 3.7.

With `CC(C)(C)OC(=O)N1C[C@@H]2C[C@H]1CN2c1ncc(OCc2ccc(S(C)(=O)=O)cc2)cn1` the logD ([1]; octanol/phosphate buffer) was 2.8.

`CC(C)(C)OC(=O)N1C[C@@H]2CC[C@H]1CN2c1ncc(OCc2ccc(S(C)(=O)=O)cc2)cn1` showed a logD ([1]; octanol/phosphate buffer) of 3.4.

In the case of `C[C@@H]1CN(C(=O)OC(C)(C)C)CCN1c1ncc(OCC2CCN(S(C)(=O)=O)CC2)cn1`, the logD ([1]; octanol/phosphate buffer) is reported as 3.5.

With `C[C@@H]1CN(C(=O)OC(C)(C)C)CCN1c1ncc(OCc2ccc(S(=O)(=O)N(C)C)cc2)cn1` the logD ([1]; octanol/phosphate buffer) was > 4.3.

In the case of `C[C@@H]1CN(C(=O)OC(C)(C)C)CCN1c1ncc(OCc2ccc(C#N)cc2)cn1`, the logD ([1]; octanol/phosphate buffer) is reported as > 3.6.

From ChEMBL document CHEMBL2086249, “Use of small-molecule crystal structures to address solubility in a novel series of G protein coupled receptor 119 agonists: optimization of a lead and in vivo evaluation” (J Med Chem, 2012)
